# Measurements: paper PMC12416277, “Phytochemical alkaloids orchestrate immunometabolism against viral infections” (National Science Review, 2025)
# Like-named read-outs stand apart in the source and are kept apart here.
# Legend:
# H1N1 [1] = assay: Dose-response of infectivity, H1N1 in A549 cells (viral mRNA by qRT-PCR); type: cell-based; details: Influenza A virus; A549 cells, H1N1; read-out: EC50
# EMCV [2] = assay: microbe, parasite or virus in culture; type: cell-based, encephalomyocarditis virus (EMCV); details: Cardiovirus A, A549
# HSV-1 [3] = assay: microbe, parasite or virus in culture; type: cell-based, herpes simplex virus 1 (HSV-1); details: Human alphaherpesvirus 1, A549
# EMCV [4] = assay: microbe, parasite or virus in culture; type: cell-based, encephalomyocarditis virus (EMCV); details: Cardiovirus A, L929
# HSV-1 [5] = assay: microbe, parasite or virus in culture; type: cell-based, herpes simplex virus 1 (HSV-1); details: Human alphaherpesvirus 1, L929
# VSV [6] = type: cell-based, vesicular stomatitis virus (VSV)
# VSV [7] = type: cell-based, vesicular stomatitis virus (VSV); remark: listed apart in the source
# EMCV [8] = type: cell-based, encephalomyocarditis virus (EMCV)
# H1N1 [9] = assay: Viral attachment, entry and post-entry assay, H1N1 in A549 cells; type: cell-based, influenza virus A (H1N1)
# VSV [10] = type: cell-based, vesicular stomatitis virus (VSV); remark: listed apart in the source
# [11] = tested on: cholesterol metabolism genes; type: cell-based, human
# A549 cells [12] = type: cell-based
# A549 cells [13] = assay: Confocal analysis of filipin-stained cholesterol distribution in A549 cells; type: cell-based
# VSV [14] = type: cell-based, vesicular stomatitis virus (VSV); remark: listed apart in the source
# [15] = tested on: IFNB1, IFIT1, IFIT2 and IFI44 mRNA; assay: IFNB1 and ISG mRNA expression in A549, PBMC and MEF cells (qRT-PCR); type: cell-based; details: A549, PBMC, MEF cells
# IFN-β = IFN-β secretion in MEF cells (ELISA); type: cell-based
# [16] = tested on: TBK1, STAT1 and STAT2 phosphorylation; assay: Immunoblotting of p-TBK1, p-STAT1, p-STAT2 in THP-1 and MEF cells; type: cell-based; details: THP-1, MEF cells
# STAT1 = assay: Confocal analysis of nuclear localization of STAT1 in A549 cells; type: cell-based
# [17] = tested on: Ifnb1, Ifit1, Ifit2 and Ifi44 mRNA; assay: Ifnb1 and ISG mRNA in mouse lungs, livers, spleens after intraperitoneal injection; type: in vivo; details: intraperitoneal 30, 60 mg/kg/d, 24-48 h
# STING [18] = assay: DMXAA-stimulated WT or Sting-/- MEF cells, Ifnb1, Ifi44, Ccl5, Cxcl10 mRNA; type: cell-based, mouse
# HSV-1 [19] = type: cell-based, herpes simplex virus 1 (HSV-1)
# VSV [20] = type: cell-based, vesicular stomatitis virus (VSV); remark: listed apart in the source
# H1N1 [21] = type: cell-based, influenza virus A (H1N1)
# sgRNA-Npc1 cells = type: cell-based, mouse
# STING [22] = type: cell-based
# NPC1/STING axis = assay: Ifit1 and Ifit2 mRNA in sgRNA-EV, sgRNA Npc1 and Flag-NPC1 cells stimulated with DMXAA and Tet; type: cell-based, mouse; details: sgRNA-EV vs NPC1-deficient vs Flag-NPC1 cells, DMXAA
# Experimental: Figure 5. The dual functions of Tet to resist viral entry and activate antiviral immunity through the NPC1/STING axis. (a, b) Confocal analysis of Bio-Tet with CD63 (a) or NPC1 (b) in A549 cells, scale bar: 10 μm. (c) Binding affinity analysis of NPC1 with itraconazole, U18666A, or Tet was determined by SPR. (d, e) CETSA (d) and DARTS (e) analysis of NPC1 with Tet in HepG2 cells. (f) Streptavidin-covered beads with biotin, Bio-Tet, Bio-Tet + Tet were incubated with cell lysates. As indicated, the levels of NPC1 protein in bound proteins (IP) and total proteins (Input) were determined using immunoblotting. (g) Viral mRNA expression in siNPC1-transfected cells treated with Tet. (h) Viral mRNA expression in sgRNA-EV, sgRNA Npc1, and sgRNA Npc1 cells transfected with Flag-NPC1 treated with Tet. (i) Ifit1 and Ifit2 mRNA expression in sgRNA-EV, sgRNA Npc1, and sgRNA Npc1 cells transfected with Flag-NPC1 stimulated with DMXAA and Tet. (j) Schematic of LysoIP-DEG. (k) Immunoblotting analysis of the indicated proteins in LysoIP-DEG in Tet-treated HepG2 cells. (l) Schematic model of NPC1/STING axis-mediated viral inhibition by Tet. The schematic diagram (j) and model (l) were created by Figdraw. For a, b, g, h, i, n = 3 independent experiments. All data are presented as mean ± SD. P values were calculated using one-way ANOVA (g, h, i). NS, not significant. […]
# VSV [23] = type: in vivo, C57/BL6J mice; details: mice
smiles,measurement,setting,value
"COc1ccc2cc1Oc1ccc(cc1)C[C@H]1c3cc(c(OC)cc3CCN1C)Oc1c(OC)c(OC)cc3c1[C@H](C2)N(C)CC3 [Tet, tetrandrine]",EC50,H1N1 [1],330 nM
same,EC50,EMCV [2],231 nM
same,EC50,HSV-1 [3],1590 nM
same,EC50,EMCV [4],989 nM
same,EC50,HSV-1 [5],132 nM
same,"VSV replication (VSV-G protein, immunoblotting)",VSV [6],inhibited
same,VSV infection,VSV [7],effectively suppressed
same,EMCV infection,EMCV [8],effectively suppressed
same,H1N1 infection during entry or post-entry stages,H1N1 [9],inhibited
same,H1N1 attachment,H1N1 [9]; 4°C,without affecting virus attachment
same,VSV replication,VSV [10],suppressed
same,antiviral efficacy,VSV [10],remained unchanged
same,"expression of genes involved in cholesterol synthesis (SREBF2, HMGCR, SQLE, SREBP1C, DHCR24, DHCR7, FASN) and absorption (LDLR)",[11],increased expression
same,"expression of genes related to cholesterol transport (ABCA1, ABCG1), oxidation (CYP27A1, CYP46A1) or esterification (ACAT1, ACAT2)",[11],did not affect the expression
same,intracellular cholesterol levels,A549 cells [12],higher intracellular cholesterol levels
same,cholesterol distribution / lysosomal cholesterol accumulation,A549 cells [13],shifting it from the plasma membrane to endosomal and lysosomal compartments
same,antiviral effect on VSV entry,VSV [14]; MβCD pretreatment (cholesterol depleted),abolished
same,antiviral effect on VSV entry,VSV [14]; cholesterol supplementation using MβCD-cholesterol,restored inhibition
same,IFNB1 and ISGs mRNA,[15],upregulation
same,IFN-β production,IFN-β,induced
same,"phosphorylation of TBK1, STAT1 and STAT2",[16],"increased the phosphorylation of TBK1, STAT1 and STAT2 in a time- and dose-dependent manner"
same,STAT1 nucleus translocation,STAT1,promoted STAT1 nucleus translocation
same,Ifnb1 and ISGs mRNA levels in vivo,[17],"increased Ifnb1 and ISGs mRNA levels in vivo, particularly in lungs and livers"
same,"Ifnb1, Ifi44, Ccl5 and Cxcl10 gene expression",STING [18]; DMXAA treated Sting-/- MEF cells,abolished
same,"Ifnb1, Ifi44, Ccl5 and Cxcl10 gene expression",STING [18]; DMXAA treated WT MEF cells,increased
same,antiviral effect against HSV-1,HSV-1 [19],markedly reduced
same,antiviral effect and boosted ISGs,VSV [20],significantly attenuated
same,antiviral effect against H1N1,H1N1 [21],diminished
same,antiviral effects,sgRNA-Npc1 cells,attenuated but restored with Flag-tagged NPC1 reintroduction
same,time-dependent degradation of STING induced by DMXAA,STING [22],significantly attenuated
same,Ifit1 and Ifit2 expression,NPC1/STING axis,"observed in sgRNA-EV cells, but this effect was abolished in NPC1-deficient cells and restored in sgRNA-Npc1 cells transfected with Flag-NPC1"
same,IL-6 level in serum,VSV [23]; VSV infection,markedly decreased
same,TNF-α level in serum,VSV [23]; VSV infection,markedly decreased
same,VSV-G protein expression in lungs and spleens,VSV [23]; VSV infection,inhibited
same,lung pathology (H&E),VSV [23]; VSV infection,reduced lung pathology and cellular infiltrations
same,"reduction of VSV genome copies in liver, lung, and spleen tissues","VSV [23]; intraperitoneal and intragastric, 10–60 mg/kg, 24 hours pre-VSV infection",0.5–1 log₁₀
